According to patent US10711246B2, “Methods and compositions for generating epicardium cells” (UNIVERSITY HEALTH NETWORK, priority 2013, dated 2020):

Assays:
Type in all cases: cell-based, human
[1] = tested on: hESC-derived WT1+ epicardial cells; assay: EMT induction in passaged day 15 WT1+ epicardial cells; qRT-PCR, flow cytometry, immunostaining; conditions: for WT1 expression over time after EMT initiation: qRT-PCR, eight-day culture
Experimental: FIG. 11. WT1^+ epicardial cells undergo EMT in response to TGFβ1 and bFGF treatment. (a) Scheme of the protocol used for EMT induction. Day 15 WT1+ cultures are passaged, allowed to settle for 1 day and then treated with TGFβ1 (5 ng/ml) for 4 days followed by no treatment (TGFβ), sequential treatment with […] (5 ng/ml) for 4 days followed by bFGF (10 ng/ml) for 4 days (TGFβ+bFGF), or bFGF (10 ng/ml) treatment for 8 days (bFGF). No treatment of the cultures serves as a control. (b) Flow cytometric analyses of cultures 8 days following the initiation of EMT for the cell surface mesenchymal marker CD90. Gray filled histogram indicates control culture fluorescence intensity. (c) qRT-PCR-based expression of the epicardial gene WT1 and the EMT-induced genes SNAI1 and SNAI2 on days 2, 4, 6 and 8 after EMT initiation. Values are expressed as fold change to experiment-matched pre-passaged day 15 WT1+ cultures. Error bars represent standard deviation from the mean of the values from three independent experiments (N=3); *P≤0.05, **P≤0.01 compared to no treatment control.
FIG. 12. WT1 and ZO1 expression is lost in response to EMT. Phase contrast and fluorescent immunostaining showing cell morphology and the expression of ZO1 and WT1 proteins in epicardial cultures 8 days after EMT initiation with the indicated factors.
FIG. 13. EPDCs display characteristic expression of fibroblasts and vascular smooth muscle cell markers by fluorescent immunostaining. Fluorescent immunostaining showing α-Smooth muscle actin (SMA) and Vimentin (VIM) protein in cultures 8 days after EMT initiation with the indicated factors.
FIG. 14. EPDCs display characteristic expression of fibroblasts and vascular smooth muscle cell markers by qRT-PCR. qRT-PCR-based expression analyses of the smooth muscle genes […], MYH11, TAGLN and SMTN and the epicardial/cardiac fibroblast gene TCF21 in the indicated cultures 8 days after EMT initiation. Values are expressed as fold change to experiment-matched pre-passaged day 15 WT1^+ epicardium cultures. Error bars represent standard deviation from the mean of the values from three independent experiments (N=3); *P≤0.05, **P≤0.01 compared to no treatment control cultures.
To determine if the hESC-derived WT1^+ epicardial-like cells can undergo EMT, an assay was designed in which D15 epicardial cells are passaged, allowed one day to recover, and then treated for a total of eight days with one of four treatment regimens. The regimens consisted of: 1) TGFβ-1 for four days followed by four days with no additional factor (TGFβ), 2) TGFβ-1 for four days followed by four days with bFGF (TGFβ+bFGF), 3) bFGF for eight days (bFGF) or 4) no additional factors for eight days (FIG. 11a). Following culture under the different conditions, the cells were harvested and analyzed by qRT-PCR and flow cytometry.

[2] = tested on: hPSC-derived Epi cells; assay: Matrigel invasion assay eight days after EMT induction, confocal microscopy and 3D reconstruction; conditions: eight days following induction of EMT
Source text: (a) Representative fields of view in the XY plane (top view) and 3D reconstruction (side view) of the matrigel invasion assay on D8 after EMT induction.
(b) Maximum matrigel invasion depth on D8 following EMT initiation. Bars represent standard error of the mean of the values from three independent experiments (N=3); **P≤0.01 compared to non-treated controls as analyzed by Student's T-test.
It is well established that during heart development EPDCs, and in particular cardiac fibroblasts, invade the myocardial layer^33. To assess this potential of the hPSC-derived Epi cells, their ability to invade a 3D layer of Matrigel following induction of EMT with the different factors was measured. To enable us to easily track the migration of the cells, the Epi population was generated from GFP expressing hESCs^48. Matrigel invasion was monitored eight days following the induction of EMT by confocal microscopy and evaluated using 3D image reconstruction (FIG. 16a). […] Along with invasion, bFGF treatment also led to an increase in total cell number within the regions of interest (ROI). […] To further quantify the degree of invasion, the proportion of cells in each population that migrated to different depths was calculated. Virtually all of the cells in the non-induced, the TGFβ-induced and TGFβ+bFGF-induced populations were detected within the first 200 μm of the gel. In contrast, approximately half of the cells in the bFGF-induced population migrated beyond this depth, some as far as 600 μm.

[3] = tested on: WT1+ epicardial cells; assay: ALDH1A2 expression (qRT-PCR) and Aldefluor staining (flow cytometry) after EMT induction; conditions: cultures in which EMT had been induced, versus non-treated passaged epicardial cells
Source text: FIG. 17. WT1^+ epicardial cells upregulate ALDH1A2 expression and display aldehyde dehydrogenase activity following passage. (a) qRT-PCR-based expression analyses of ALDH1A1, ALDH1A2 and ALDH1A3 in D15 WT^+ epicardial cultures and Day 15+8 post-passage non-treated epicardial cultures. Values are relative to the housekeeping gene TBP. Error bars represent standard deviation from the mean of the values from three independent experiments (N=3); *P≤0.05, **P≤0.01 compared to ALDH1A2 expression levels. (b) qRT-PCR-based expression analyses of ALDH1A2 on days 2, 4, 6 and 8 following the initiation of EMT. Values are expressed as fold change to experiment-matched pre-passaged day 15 WT1^+ epicardial cultures. Error bars represent standard deviation from the mean of the values from three independent experiments (N=3); *P≤0.05, **P≤0.01 compared to no treatment control cultures. (c) Flow cytometric analyses of Aldefluor on day 15 populations generated from cells treated from days 4 to 6 with DM (non-cardiac, non-epicardial), BMP4+XAV (cardiomyocytes) or BMP4+CHIR (WT1^+ epicardial cells). (d) Flow cytometry analyses of Aldefluor on WT1^+ epicardium-derived cultures 8 days following the initiation of EMT with the indicated treatments. […]

[4] = tested on: hESC epicardial-derived smooth muscle-like cells; assay: Calcium transients of EMT-induced cells after norepinephrine (NE) and phenylephrine (PE) stimulation
Experimental: (a) The total proportion of actively cycling cells in EMT-induced cultures was measured for the indicated treatments. Treatment with TGFβ+bFGF generated populations with the largest proportion of actively cycling cells in response to agonists. Bars represent standard error of the mean; N=3/group; *P<0.05, **P<0.01 compared by one-way ANOVA with Tukey post hoc test. (b) The frequency of calcium cycles in actively cycling cells in the conditions as indicated at baseline and after NE and PE addition. Stacked bars represent the contribution to frequency of calcium cycling during baseline recording (hatched lines), and after NE (white) or PE (black) treatment. (c) The amplitude of calcium transients after NE and PE addition in the EMT induced cultures. No Treatment NE N=6 cells, PE N=4 cells; TGFβ NE N=6 cells, PE N=12 cells; TGFβ+bFGF NE N=13 cells, PE N=25 cells. *P<0.05 compared by one-way ANOVA with Tukey post hoc test. (d) The duration of calcium transients after NE and PE addition in the EMT induced cultures. […]
To test the contractile function of the smooth muscle-like cells generated following the EMT induced with TGFβ and TGFβ+bFGF, calcium transients were measured following stimulation with norepinephrine (NE) and phenylephrine (PE) using previously described methods^32. […]

[5] = qRT-PCR 8 days after EMT initiation

Row | Substance | ZO1 (and WT1) expression by immunostaining ([1]; 8 days after EMT initiation) | MYH11 expression [1, 5] | expression of smooth muscle genes CNN1, MYH11, TAGLN, SMTN and fibroblast marker TCF21 [1, 5] | SNAI1 expression ([1]; qRT-PCR after EMT initiation) | SNAI2 expression ([1]; qRT-PCR after EMT initiation) | WT1 expression over time after EMT initiation [1] | Matrigel invasion (migratory behaviour, depth) [2] | proportion of cells that migrated beyond 200 μm [2] | total cell number within the regions of interest [2] [cells per ROI] | farthest depth of migration ([2]; some cells) [μm] | ALDH1A2 expression and Aldefluor staining [3] | vimentin (VIM) immunostaining ([1]; 8 days after EMT initiation, compared with bFGF alone) | α-smooth muscle actin (SMA) immunostaining ([1]; compared to bFGF or absence of factors) | amplitude of calcium response ([4]; PE-treated, compared to control cultures) | calcium cycling rates ([4]; following PE stimulation, cells that exhibited calcium transients)
1 | bFGF | internalized or lost | did not express MYH11 | expressed TCF21 in addition to CNN1, TAGLN and SMTN | induced the expression of SNAI1 | increases in SNAI2 expression | did not decline below those of the control | most migratory and invaded the matrigel to the greatest depth | approximately half | 379.7±40.5 | ≤ 600 | dramatically lower levels |  |  |  | 
2 | TGFβ-1 | internalized or lost |  | upregulated expression of CNN1, MYH11, TAGLN and SMTN but not TCF21 |  | increases in SNAI2 expression | steady decreases in WT1 expression | little capacity to invade the Matrigel |  | 56.8±9.5 |  | dramatically lower levels | substantially brighter staining | higher levels | greatest | faster calcium cycling rates than those in the non-induced control cultures
